Calls of active or inactive are those of the source.
Key:
cells = format: functional
[1] = NIH-3T3 fibroblast cytotoxicity, dose response, cytotoxicity control, cell-based, fluorescence, Alamar Blue, secondary assay (AID 2327); format: functional;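 further: NIH-3T3 mouse fibroblasts cultured with fluconazole at 8 µg/mL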
[2] = fluconazole-exposed Candida albicans growth modulators – fluorescence, retest, confirmation (AID 2467); format: functional, cell-based
[3] = viability of uninfected HEp-2 cells – cell-based, HTS, cytotoxicity control for RSV inhibitor project, dose response (AID 2410); format: functional; conditions: human respiratory syncytial virus
[4] = luciferase reporter signal suppression in cells – H4 neuroglioma cells, luminescence, dose response (AID 1990); format: functional, cell-based
[5] = Luminescence Cell-Based Dose Response HTS to Identify Inhibitors of 5'UTR Stem-Loop Driven Prion Protein mRNA Translation in H4 Neuroglioblastoma Cells. [Related pubchem assays: 1827 (Project Summary), 1813 (Primary HTS)]; format: functional
[6] = alpha-synuclein stem-loop luciferase translation blockers – H4 neuroglioma cells, luminescence, confirmation (AID 1988); format: functional, cell-based
[7] = reduction of Shn3 3'UTR-driven luciferase in osteoblasts – cell-based, Clone20 osteoblasts, firefly luciferase, cherry-picked, dose response (AID 624132); format: functional;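 further: firefly luciferase luminescence from reporter carrying the Shn3 3'UTR in osteoblasts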
[8] = target: T1, Rac GTPase-activating protein 1 (Homo sapiens, UniProt Q9H0H5); test: blockers of MgcRacGAP-driven Rac1 GTP hydrolysis – biochemical, ADP Hunter fluorescence, primary and confirmatory, confirmation (AID 624330); format: functional
T1 sequence (Q9H0H5 whole entry): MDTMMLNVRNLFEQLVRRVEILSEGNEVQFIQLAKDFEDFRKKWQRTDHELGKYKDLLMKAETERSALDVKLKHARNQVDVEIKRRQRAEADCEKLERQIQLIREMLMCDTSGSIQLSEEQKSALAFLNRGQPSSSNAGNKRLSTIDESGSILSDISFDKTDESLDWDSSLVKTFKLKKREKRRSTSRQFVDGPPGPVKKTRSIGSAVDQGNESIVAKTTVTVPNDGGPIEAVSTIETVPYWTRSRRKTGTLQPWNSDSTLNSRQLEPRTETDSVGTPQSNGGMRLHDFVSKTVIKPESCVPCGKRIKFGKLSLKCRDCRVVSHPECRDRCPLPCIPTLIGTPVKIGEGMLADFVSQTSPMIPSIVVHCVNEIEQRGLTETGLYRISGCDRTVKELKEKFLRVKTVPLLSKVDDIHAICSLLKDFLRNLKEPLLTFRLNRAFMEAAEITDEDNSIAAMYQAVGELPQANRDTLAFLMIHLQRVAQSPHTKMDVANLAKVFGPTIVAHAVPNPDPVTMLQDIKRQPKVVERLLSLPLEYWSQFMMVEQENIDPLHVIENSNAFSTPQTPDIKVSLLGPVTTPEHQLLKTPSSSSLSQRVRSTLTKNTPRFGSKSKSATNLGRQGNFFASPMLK

HEK293 = test: EBV LMP1 TES2 canonical NF-kB signalling blockers – cell-based, HEK293, luciferase, cherry-pick, dose response (AID 588343); format: functional; conditions: Homo sapiens
[9] = target: T2, Ubiquitin-conjugating enzyme E2 N (Homo sapiens, UniProt P61088); format: functional;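 further: Dose-response confirmation in a TR-FRET assay detecting UBC13-driven polyubiquitin chain formation, inhibition measured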
T2 sequence (P61088 whole entry): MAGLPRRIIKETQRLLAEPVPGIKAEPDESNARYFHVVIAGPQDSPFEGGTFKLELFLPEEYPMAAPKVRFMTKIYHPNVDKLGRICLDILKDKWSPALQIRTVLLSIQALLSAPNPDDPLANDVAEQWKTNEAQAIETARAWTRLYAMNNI

Paired box protein Pax-8 = Paired box protein Pax-8 (Homo sapiens, UniProt Q06710); test: PAX8 transcriptional activity inhibition in RMG-I – RMG-I cells, luciferase, cherry-pick, dose response (AID 687027); format: functional, cell-based;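 further: luciferase reporter driven by Pax8 target thyroperoxidase promoter measured by SteadyGlo luminescence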
Paired box protein Pax-8, sequence (Q06710 whole entry): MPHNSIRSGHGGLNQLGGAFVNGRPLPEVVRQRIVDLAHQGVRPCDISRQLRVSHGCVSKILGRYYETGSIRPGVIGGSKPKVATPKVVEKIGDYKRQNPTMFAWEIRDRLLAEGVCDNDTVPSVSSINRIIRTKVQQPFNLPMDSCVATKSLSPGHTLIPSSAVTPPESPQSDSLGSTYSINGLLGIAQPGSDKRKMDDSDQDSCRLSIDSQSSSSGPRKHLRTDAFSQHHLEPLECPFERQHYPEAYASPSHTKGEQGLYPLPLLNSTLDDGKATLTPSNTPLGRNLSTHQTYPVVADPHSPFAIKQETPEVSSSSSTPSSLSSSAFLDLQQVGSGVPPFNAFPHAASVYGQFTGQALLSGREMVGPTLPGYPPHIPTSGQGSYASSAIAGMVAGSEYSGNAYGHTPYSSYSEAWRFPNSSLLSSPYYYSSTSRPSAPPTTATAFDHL

[10] = Trypanosoma cruzi growth suppression in host cells – NIH3T3 host cells, beta-gal luminescence, confirmation (AID 2044); format: functional, cell-based;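 further: intracellular parasites grown in NIH/3T3 mouse fibroblasts as host cells; luminescent beta-galactosidase reporter signal from transgenic T. cruzi replicating inside host cells; inhibitors lower the luminescence signal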
[11] = NIH3T3 cell viability loss – ATP luminescence, mouse fibroblasts, counter-screen, dose response (AID 2010); format: functional, cell-based;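 further: cells exposed to compound for about 90 hours before reading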
[12] = tested on: Streptococcus sp. 'group A'; test: Streptococcus pyogenes SK(-)GAS viability under kanamycin – luminescence, BacTiterGlo, confirmation, counter-screen for streptokinase expression inhibitor project, dose response (AID 1900); format: functional, organism-based
Streptokinase A = target: T3, Streptokinase A (Streptococcus pyogenes serotype M1, UniProt P10520); test: viability-normalized secreted streptokinase activity reduction – plasminogen activation absorbance, OD405, dose response (AID 1914); format: functional, Streptococcus pyogenes M1 GAS;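 further: secreted streptokinase activity via plasminogen activation per viability signal from cell pellet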
T3 sequence (P10520 whole entry): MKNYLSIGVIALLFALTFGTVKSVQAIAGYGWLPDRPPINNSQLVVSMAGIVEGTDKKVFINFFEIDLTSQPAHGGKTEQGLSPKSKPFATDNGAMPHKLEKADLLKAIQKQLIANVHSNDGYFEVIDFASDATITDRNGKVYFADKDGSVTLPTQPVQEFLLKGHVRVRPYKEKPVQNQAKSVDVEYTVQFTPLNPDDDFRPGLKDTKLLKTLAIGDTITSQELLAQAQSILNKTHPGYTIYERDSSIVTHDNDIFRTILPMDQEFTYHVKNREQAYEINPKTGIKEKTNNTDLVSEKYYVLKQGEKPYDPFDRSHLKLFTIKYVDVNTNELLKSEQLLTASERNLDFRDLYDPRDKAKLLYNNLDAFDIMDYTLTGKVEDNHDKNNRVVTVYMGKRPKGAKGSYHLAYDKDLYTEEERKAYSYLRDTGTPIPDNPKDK

Streptococcus = test: GAS UMAA2166 growth inhibition – luminescence, BacTiterGlo, counter-screen for streptokinase expression inhibitor project, dose response (AID 1915); format: functional, organism-based;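 further: potency for reduction of bacterial viability or growth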

In the case of `COc1ccccc1C1=Nn2c(nnc2C2CCCCC2)SC1`, the IC50 (cells) is reported as 12.1 µM (active).

In the case of `CCCCC(=O)Nc1ncc([N+](=O)[O-])s1`, the EC50 [1] is reported as > 160 µM (inactive) and the EC50 [2] is reported as 0.141 µM (active).

With `CN(C1=NC(=O)C(CC(=O)Nc2ccc(Br)cc2)S1)c1ccc(O)cc1` (stereo not given) the CC50 [3] was 36 µM (active), the EC50 [4] was 66.4 µM (active) and the EC50 [5] was > 120 µM (not active). For the same compound, the EC50 [6] was 23.8 µM (active).

In the case of `Cc1cccc(NC(=O)NC2CCCCCCC2)c1`, the EC50 [1] is reported as 24.8 µM (active) and the EC50 [2] is reported as > 38 µM (not active).

In the case of `Cc1ccc(NC(=S)NC(=O)C2CC2)cc1Cl`, the EC50 [1] is reported as > 160 µM (inactive) and the EC50 [2] is reported as 3.32 µM (active).

With `COCCSc1nnc(NC(=O)CCS(=O)(=O)Cc2ccccc2)s1` the IC50 (cells) was 45.5 µM (active).

In the case of `O=C(c1ccc(F)cc1)N1CCN2C(=O)c3ccccc3C12c1ccc(Cl)cc1` (stereo not given), the CC50 [3] is reported as 29 µM (active).

For `O=C(OCC#CCSc1nnc(-c2ccccc2)o1)c1ccco1`, the IC50 (cells) was 21.1 µM (active).

For `Cc1cc(C)c(S(=O)(=O)Nc2cccc(-n3cnnn3)c2)c(C)c1`, the EC50 [1] was 29.6 µM (active) and the EC50 [2] was 10.9 µM (active).

In the case of `CC(=O)N1CCOc2cc(S(=O)(=O)NCc3ccc(F)cc3)c(C)cc21`, the AC50 [7] is reported as > 70 µM (inactive).

With `CN(C)c1ccc(NC(=O)CCN2C(=O)c3cccc([N+](=O)[O-])c3C2=O)cc1` the IC50 [8] was 86.5 µM (active).

In the case of `O=C(Oc1ccc(Cl)c2cccnc12)c1cccc([N+](=O)[O-])c1`, the EC50 [1] is reported as 19.9 µM (inconclusive) and the EC50 [2] is reported as > 38 µM (not active).

With `O=C(Nc1ccc(Cl)cc1)c1ccc(-n2cncn2)c([N+](=O)[O-])c1` the CC50 [3] was 20.6 µM (active).

In the case of `CCCOC(=O)c1cc(NC(=O)/C=C/c2ccccc2)ccc1O`, the CC50 [3] is reported as 20.4 µM (active).

In the case of `CN(C)c1ccc(/C=C2/NC(=O)NC2=O)cc1`, the IC50 [8] is reported as 51.2 µM (active).

For `COc1cc(N(C)C)c([N+](=O)[O-])cc1C(=O)N1CCN(Cc2ccccc2)CC1`, the AC50 (HEK293) was 12.8 µM (active).

In the case of `COc1ccc(Cl)cc1C(=O)NCc1ccc2c(c1)OCO2`, the CC50 [3] is reported as 34.4 µM (active).

In the case of `COc1cc2c(cc1OC)CN(C(=O)c1ccc3[nH]c(C)c(C)c3c1)CC2`, the CC50 [3] is reported as > 50 µM (active).

With `O=C(C(=O)N1CCOCC1)c1cn(Cc2ccc(F)cc2)c2ccccc12` the IC50 [9] was > 20 µM (inactive).

With `COC(=O)c1ccc(NCc2c(O)ccc(O)c2Br)cc1Cl` the IC50 [8] was 57.6 µM (active).

In the case of `Cc1cccc(/N=C2/Sc3nc4c(C)c(C)ccc4cc3CN2CCN2CCOCC2)c1`, the CC50 [3] is reported as 16.1 µM (active).

For `CN(/N=C/c1ccc(O)cc1O)c1nc(-c2ccccc2)cc(-c2ccccc2)n1`, the AC50 (Paired box protein Pax-8) was 26.9 µM (active).

For `Cc1ccc(-c2cc(C(=O)N/N=C/C=C/c3ccco3)c3ccccc3n2)cc1C`, the AC50 (HEK293) was 1.63 µM (active).

With `CC1=Nc2ncnn2C(c2cccnc2)/C1=C(\O)OC1CCCCC1` (stereo not given) the EC50 [10] was 2.35 µM (active), the EC50 [11] was > 60 µM (not active) and the AC50 (Paired box protein Pax-8) was 36.1 µM (active).

In the case of `O=C(CCN1CCN(C/C=C/c2ccccc2)CC1)Nc1ccc(Cl)cc1`, the IC50 (cells) is reported as 34.6 µM (active).

In the case of `O=C(Nc1ccccc1)N1CCN(c2nc(-c3ccccc3)ns2)CC1`, the IC50 [9] is reported as > 20 µM (inactive).

With `O=c1c2sccc2[nH]c(=S)n1-c1ccccc1` the IC50 [9] was > 20 µM (inactive).

In the case of `COC(=O)N/N=C/c1c[n+]([O-])c2ccccc2[n+]1[O-]` [CARBADOX], the EC50 [12] is reported as 9.12 µM (active), the EC50 (Streptokinase A) is reported as > 150 µM (not active) and the EC50 (Streptococcus) is reported as 11.5 µM (active).

Source: ChEMBL document CHEMBL1201862, “PubChem BioAssay data set” (2004)
